Where two headings read alike, the source gives them in different places.
Columns and labels:
ER = test: Nuclear receptor ER binding; details: [^3H]estradiol, MCF-7 cells
[1] = CR6086 pharmacokinetics in rats; assay type: in vivo, rat; details: for Cmax / AUC / Tmax: rat, plasma, oral; for AUC: read-out: AUC24; for Tmax: median
Method: CR6086 concentrations in rat plasma were determined by high-performance liquid chromatography (Agilent 1200 series; Agilent Technologies, Santa Clara, CA, USA) coupled with a triple-quadrupole mass spectrometer (API 4000 QTRAP; SCIEX, Concord, ON, Canada). A ZORBAX SB-C18 2.0 × 50-mm, 3.5-μm column (Agilent Technologies) in isocratic conditions was used with mobile phase 0.1% formic acid in water/acetonitrile (68:32 vol/vol). The method was linear within the dynamic range 1.0–10,000 ng/ml (lower to upper limit of quantification). CR6086 plasma protein binding was determined in the 0.2–200 μM concentration range using [^14C]CR6086 and equilibrium dialysis. EP4 receptor occupancy (RO) was calculated on the basis of CR6086 concentrations according to the following formula: RO%=Cave/Cave+Ki×100,
The pharmacokinetics of CR6086 were investigated in the animal species used as rheumatoid arthritis models, employing the same administration route and dose range. […] Therefore, for ethical reasons, all pharmacokinetic experiments were conducted in naive animals.

δ2 (DOP) = δ2 (DOP) (Homo sapiens, UniProt P41143); test: Opioid receptor δ2 (DOP) binding; details: [^3H]DADLE, Human recombinant CHO cells, read-out: CR6086 Activity at 10µM
SKCa channel = test: Ion channel SKCa binding; details: [^125I]apamin, Rat cerebral cortex
human EP4 receptor = target: T1, human EP4 receptor (Homo sapiens, UniProt P35408); test: EP4 radioligand binding assay ([^3H]PGE2), human receptor; details: for Ki: read-out: Ki CR6086
T1 construct: expressed in transfected cells
Description: The complementary DNA (cDNA) clone of the human EP4 receptor (hEP4R; NM_000958.2) was obtained from Thermo Fisher Scientific (Ultimate ORF Clone Collection, clone ID IOH46525; Waltham, MA, USA). The coding sequence was subcloned in expression vector pcDNATM6.2/V5-DEST by using Invitrogen Gateway technology (Thermo Fisher Scientific). Human embryonic kidney cells 293 (HEK293) were obtained from the American Type Culture Collection (ATCC; Manassas, VA, USA) and transfected with expression vector for hEP4R according to the method described in the FuGENE 6 Transfection Reagent technical manual (Promega, Madison, WI, USA). The clones overexpressing the protein were selected for Blasticidin S HCl (Thermo Fisher Scientific) resistance. The selected clone was grown in DMEM containing 10% FBS and 10 μg/ml Blasticidin S HCl (selection medium) at 37 °C in a humidified atmosphere of 5% CO2 in air.
Membranes expressing the human EP4 receptor were prepared from stably transfected HEK293 cell line. Cells were grown adherent in DMEM with GlutaMAX-I (Thermo Fisher Scientific) containing 10% FBS and Blasticidin 10 μg/ml at 37 °C in a humidified atmosphere with 5% CO2. Membranes expressing the mouse or rat EP4 receptor were prepared from transiently transfected HEK293 cells. Cells were grown adherent in DMEM with GlutaMAX-I containing 10% FBS at 37 °C in a humidified atmosphere with 5% CO2. For the preparation of all cell membranes, culture medium was aspirated from 150-cm^2 flasks into which cells were seeded. Cell monolayers were then washed with 10 ml of hypotonic lysis buffer (Tris 5 mM + ethylenediaminetetraacetic acid [EDTA] 5 mM, pH 7.4), detached, and lysed with 10 ml + 10 ml of lysis buffer by mechanical scraping. Lysates were vortexed for 30 seconds and centrifuged at 40,000 × g for 22 minutes at 4 °C. Pellets were stored at −80 °C until use. Protein content of the cell membrane suspension was determined using bovine serum albumin (BSA) as a standard.
Experimental procedures were performed according to the method of Abramovitz et al.. [^3H]PGE2 (PerkinElmer, Waltham, MA, USA) binding assays for recombinant EP4 receptors were performed in 10 mM 2-(N-morpholino)ethanesulphonic acid-KOH buffer, pH 6, containing 10 mM MgCl2 and 1 mM CaCl2. Ten micrograms of protein from membrane fractions were incubated in a total volume of 0.1 ml with 1–1.5 nM [^3H]PGE2. To determine the total binding or non-specific binding, 1% dimethyl sulphoxide (DMSO) or 1 μM PGE2 was added to the reaction mixture. Incubation was carried out in 96-well multi-well plates for 90 minutes at room temperature prior to separation of the bound and free radioligand by rapid filtration on glass-fibred filters (UniFilter-96 GF/B; PerkinElmer) pre-soaked in 0.3% polyethylenimine. […] The residual [^3H]PGE2 binding was determined using a solid scintillation counter (TopCount; PerkinElmer) after at least 1 h of stabilisation. In saturation binding studies, isotherm-binding curves generated with six to eight different concentrations of [^3H]PGE2 (from 0.5 to 25 nM) were evaluated. […]
Specific binding to the receptors was defined as the difference between total binding and non-specific binding, as determined in the presence of an excess of unlabelled ligand. Binding isotherm curves were analysed to determine the equilibrium binding parameters, affinity (dissociation constant [Kd]) and maximal binding capacity of labelled ligand. Competition curves were analysed to assess the half-maximal inhibitory concentration (IC50). […]

AT1 = AT1 (Homo sapiens, UniProt P30556); test: Angiotensin receptor AT1 binding; details: [^125I][Sar^1, IIe^8]-AT-II, Human recombinant HEK-293 cells, read-out: CR6086 Activity at 10µM
P2Y = test: Purinergic receptor P2Y binding; details: [^35S]dATPαS, Rat cerebral cortex
[2] = equilibrium binding, CR6086 50 nM

T1 sequence (P35408 whole entry): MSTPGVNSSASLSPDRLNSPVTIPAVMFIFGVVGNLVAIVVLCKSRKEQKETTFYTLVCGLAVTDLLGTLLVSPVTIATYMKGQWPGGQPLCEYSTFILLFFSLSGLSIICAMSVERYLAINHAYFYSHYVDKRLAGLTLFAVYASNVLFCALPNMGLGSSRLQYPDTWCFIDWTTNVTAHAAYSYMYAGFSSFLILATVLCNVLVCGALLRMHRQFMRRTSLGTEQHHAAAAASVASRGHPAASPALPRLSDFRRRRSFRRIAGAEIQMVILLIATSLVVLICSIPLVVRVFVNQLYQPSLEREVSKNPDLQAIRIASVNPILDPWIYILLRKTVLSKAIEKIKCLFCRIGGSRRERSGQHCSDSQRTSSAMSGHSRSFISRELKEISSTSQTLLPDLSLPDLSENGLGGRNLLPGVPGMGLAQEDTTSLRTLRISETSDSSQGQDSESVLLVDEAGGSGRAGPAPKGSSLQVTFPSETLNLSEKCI
Sequence of δ2 (DOP) (P41143 whole entry): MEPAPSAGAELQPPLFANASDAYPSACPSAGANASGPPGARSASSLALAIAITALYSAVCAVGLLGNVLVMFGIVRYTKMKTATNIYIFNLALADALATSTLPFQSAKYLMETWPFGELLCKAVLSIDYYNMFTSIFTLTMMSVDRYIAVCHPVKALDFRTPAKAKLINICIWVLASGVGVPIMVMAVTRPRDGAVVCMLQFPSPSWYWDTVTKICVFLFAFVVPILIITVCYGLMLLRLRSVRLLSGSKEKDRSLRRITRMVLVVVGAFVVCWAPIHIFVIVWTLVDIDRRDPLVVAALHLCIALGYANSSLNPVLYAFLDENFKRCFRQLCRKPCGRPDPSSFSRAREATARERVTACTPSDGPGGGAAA
Sequence of AT1 (P30556 whole entry): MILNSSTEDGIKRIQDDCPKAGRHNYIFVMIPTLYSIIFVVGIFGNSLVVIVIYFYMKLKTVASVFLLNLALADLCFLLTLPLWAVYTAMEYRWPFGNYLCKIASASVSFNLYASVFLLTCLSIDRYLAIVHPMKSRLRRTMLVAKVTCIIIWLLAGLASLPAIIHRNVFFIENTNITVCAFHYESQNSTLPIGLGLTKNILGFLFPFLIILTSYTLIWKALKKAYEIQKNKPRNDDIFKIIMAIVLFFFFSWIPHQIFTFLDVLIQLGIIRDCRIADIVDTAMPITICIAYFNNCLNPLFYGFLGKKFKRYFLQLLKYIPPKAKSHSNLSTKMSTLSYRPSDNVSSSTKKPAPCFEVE

## O=C([O-])c1ccc(C2(NC(=O)[C@H]3CC4(CCN3Cc3ccc(C(F)(F)F)cc3)CC4)CC2)cc1.[Na+] [CR6086, Sodium (R)-4-(1-(6-(4-(trifluoromethyl)benzyl)-6-azaspiro[2.5]octane-5-carboxamido)cyclopropyl)benzoate]
ER
  CR6086 Activity at 10µM: IN (IN = < 20% displacement or inhibition (all tables))
[1]; 3 mg/kg, 24-h dosing interval, single dose
  unbound Cave: 27.6 ng/mL
[1]; 3 mg/kg, repeated doses
  unbound Cave adjusted for the accumulation ratio: 32.8 ng/mL
[1]; 1–30 mg/kg oral
  dose linearity of pharmacokinetics: linear pharmacokinetics
  oral absorption: rapidly and completely absorbed
[1]; male rats
  accumulation ratio after repeated doses: 1.19
[1]; 1 mg/kg
  Cmax: 1250 ± 67 ng/mL
  Tmax: 15 min
[1]; 1 mg/kg, AUC4 for the dose of 1 mg/kg
  AUC: 2170 ± 338 ng·h/mL
[1]; 3 mg/kg
  Cmax: 3230 ± 173 ng/mL
  Tmax: 15 min
  AUC: 13700 ± 3990 ng·h/mL
[1]; 10 mg/kg
  Cmax: 14500 ± 3400 ng/mL
  Tmax: 30 min
  AUC: 58000 ± 6730 ng·h/mL
[1]; 15 mg/kg
  Cmax: 11900 ± 2040 ng/mL
  Tmax: 30 min
  AUC: 61600 ± 10600 ng·h/mL
[1]; 30 mg/kg
  Cmax: 34500 ± 6400 ng/mL
  Tmax: 60 min
  AUC: 206000 ± 46000 ng·h/mL
δ2 (DOP)
  inhibition at 10 µM: < 20%
SKCa channel
  CR6086 Activity at 10µM: IN (IN = < 20% displacement or inhibition (all tables))
Human EP4 receptor; [^3H]PGE2 displacement, HEK293 membranes, absence of BSA
  Ki: 16.6 nM
Human EP4 receptor; after addition of 0.5% BSA in the assay buffer
  Ki: 15.5 nM
Human EP4 receptor; [2]
  change in [^3H]PGE2 affinity in the presence of CR6086: fourfold decrease
  change in maximal binding capacity of [^3H]PGE2: +20%
  type of antagonism: competitive antagonist
AT1
  inhibition at 10 µM: < 20%
P2Y
  CR6086 Activity at 10µM: IN (IN = < 20% displacement or inhibition (all tables))
